# PMC11274883, “Anticancer Effect of Pt^[sequence], Pt^II5MESS, Pt^II56MESS and Their Platinum(IV)-Dihydroxy Derivatives against Triple-Negative Breast Cancer and Cisplatin-Resistant Colorectal Cancer” (Cancers, 2024)
# Key:
# [1] = system: HT29 cells; assay: DCFDA cellular ROS detection assay; assay type: cell-based; conditions: complexes at IC50, TBHP 20 µM
# Method: (§1) DCFDA/H2DCFDA-cellular ROS Assay Kit (Abcam, Cambridge, MA, USA) was used to investigate the production of ROS in treated cells, as previously described. MDA−MB−231 or HT29 cells were seeded at a total concentration of 2500 cells/well in 96-well plates and incubated overnight. DMEM was then removed, and cells washed with 1× kit buffer, and stained with 25 µM 2′,7′-dichlorofluorescein diacetate (DCFH-DA) for 45 min. […] After that, the plates were scanned using the Glo-Max®-Multimode microplate reader (Promega Corporation, Alexandra, VIC, Australia) at an excitation/emission of 485/535 nm to detect fluorescence (relative fluorescence units, or RFU) at various time points. A positive control was generated using 20 µM tert-butyl hydroperoxide (TBHP), and the same procedure was applied with DCFDA. Three independent experiments in triplicates were implemented.
# [2] = system: MDA−MB−231 cells; assay: DCFDA cellular ROS detection assay; assay type: cell-based; conditions: complexes at IC50, TBHP 20 µM
# Method: as §1
# [3] = system: HT29 cells; assay: TMRE mitochondrial membrane potential assay; assay type: cell-based; conditions: complexes at IC50, FCCP 20 µM
# Method: (§2) Cells were then treated with an IC50 drug concentration for each complex. At 24, 48 or 72 h, DMEM was removed, and cells were washed with PBS. Then, cells were incubated with 1 µM tetramethylrhodamine, ethyl ester (TMRE) stain for 30 min. TMRE was then removed, and cells were washed twice with PBS (0.2% BSA), after which phenol red-free media was added. […] The cells were then stained with TMRE, as described above, and the resulting solution was scanned for fluorescence. Three independent experiments in triplicates were implemented.
# [4] = system: MDA−MB−231 cells; assay: TMRE mitochondrial membrane potential assay; assay type: cell-based; conditions: complexes at IC50, FCCP 20 µM
# Method: as §2
# [5] = system: HT29 cells; assay: Label-free quantitative proteomics; assay type: cell-based, Homo Sapiens; conditions: HT29, IC50, 72 h, p < 0.05, fold change > 2
# Method: (§3) The supernatant was then collected into 15 mL tubes, then the cells were washed with PBS and trypsinised. The detached cells were transferred to allocated tubes and centrifuged at 500× g for 5 min at 4 °C. Cell pellet was washed twice with PBS and then resuspended in 300 µL cell lysis buffer (RIPA) for 30 min on ice. Cell extracts were then centrifuged at 12,000× g for 15 min at 4 °C, and the supernatants (containing the proteins) were collected into Lo-Bind Eppendorf. The Bio-Rad protein assay (Bio-Rad, Hercules, CA, USA) was used to assess protein content. For protein extraction and delipidation 100 µL of the cell homogenate was moved to 1.7 mL Lo-Bind Eppendorf tubes and 450 µL methanol was added to the mixture and vortexed. Chloroform (150 µL) was next added and vortexed. Then, water (450 µL) was added to the mixture, vortexed and centrifuged for 5 min at 12,000× g, which formed the protein pellet at the organic/aqueous interface. The layer of chloroform was removed and then 400 µL of methanol was added. The sample was then vortexed and centrifuged at 12,000× g for 15 min. The supernatant was then aspirated and discarded. The pellet was then washed with methanol (400 µL). The supernatant was removed, and the pellets were air-dried overnight. Next, steps were performed for reduction, alkylation, and tryptic digestion of the protein. 0.1% RapiGest (Waters, Milford, MA, USA) in 50 mM aqueous ammonium bicarbonate (20 µL) was added to the air-dried pellet and vortexed for effective suspension. The pellet should completely dissolve. Then, 50 µL of 7 mM DTT in 50 mM aqueous ammonium bicarbonate was added, to give a final concentration of 5 mM DTT. Samples were then heated for 30 min at 60 °C and cooled to room temperature. Iodoacetamide (45 mM) in 50 mM aqueous ammonium bicarbonate was next added to give a concentration of 15 mM. The mixture was allowed to react in the dark for 30 min. Then, 10 ng/µL of Trypsin Gold, Mass spectrometry grade (Promega, NSW, Australia) was added for digestion to occur at room temperature overnight. And 50 µL of 4% (v/v) aqueous trifluoroacetic acid was then added to each tube. Samples were next heated for 45 min at 37 °C to effect decomposition of RapiGest. Samples were then centrifuged at 12,000× g for 10 min at 4 °C. Supernatants were then transferred to total recovery vials and run on a nanoAcquity Ultra-Performance Liquid Chromatography (UPLC) coupled with a Synapt G2-Si instrument (Waters, MA, USA) was used for label-free quantitative protein profiling. Nano-proteomics method is detailed in Method S1. Three independent experiments in triplicates were implemented, while all samples were analysed in a single run with a single injection (1 µL) for each trial. Mass spectrometry (MS) data were processed using Progenesis QI for proteomics (version 4.1, Nonlinear Dynamics, Newcastle upon Tyne, UK), and aligned using UniProt Homo Sapiens reference database IDEP9.6 utilised to cluster and retrieve the initial signature analyses. […] Enrichment studies were performed using gene lists that corresponded to the identified proteins. Overrepresentation analysis was performed based on Gene Ontology (GO) Biological Processes, GO Cellular Components, and GO Molecular Functions using iDEP. Enrichment maps and STRING apps were used to construct pathways networks and explore protein–protein interactions.
# [6] = system: MDA−MB−231 cells; assay: Label-free quantitative proteomics; assay type: cell-based, Homo Sapiens; conditions: MDA−MB−231, IC50, 72 h, p < 0.05, fold change > 2
# Method: as §3
smiles,measurement,setting,value
"N[C@H]1CCCC[C@@H]1N.O=[N+]([O-])[O-].O=[N+]([O-])[O-].[Pt+2].c1cnc2c(c1)ccc1cccnc12 [[Pt(1,10-phenanthroline)(1S,2S-diaminocyclohexane)](NO3)2]",ROS production,"[1]; HT29, 24 h",219.00 RFU
same,ROS production,"[1]; HT29, 48 h",256.22 RFU
same,ROS production,"[1]; HT29, 72 h",273.00 RFU
same,ROS production,"[2]; MDA−MB−231, 24 h",234.82 RFU
same,ROS production,"[2]; MDA−MB−231, 48 h",285.31 RFU
same,ROS production,"[2]; MDA−MB−231, 72 h",297.81 RFU
same,MtMp (mitochondrial membrane potential),"[3]; HT29, 24 h",321.85 RFU
same,MtMp (mitochondrial membrane potential),"[3]; HT29, 48 h",256.63 RFU
same,MtMp (mitochondrial membrane potential),"[3]; HT29, 72 h",236.73 RFU
same,MtMp (mitochondrial membrane potential),"[4]; MDA−MB−231, 24 h",258.17 RFU
same,MtMp (mitochondrial membrane potential),"[4]; MDA−MB−231, 48 h",218.19 RFU
same,MtMp (mitochondrial membrane potential),"[4]; MDA−MB−231, 72 h",169.95 RFU
same,number of downregulated differentially expressed proteins,[5],10
same,number of upregulated differentially expressed proteins,[5],9
same,number of downregulated differentially expressed proteins,[6],7
same,number of upregulated differentially expressed proteins,[6],14
